Experimental data reported in patent publication US8431593B2, “Heteroaryl amide derivatives” (H. Lundbeck A/S, priority 2006, dated 2013).

Biological target: T1, P2X7 receptor (Homo sapiens, UniProt Q99572)
T1 construct: host or cells: SH-SY5Y
T1 sequence (Q99572 1-595): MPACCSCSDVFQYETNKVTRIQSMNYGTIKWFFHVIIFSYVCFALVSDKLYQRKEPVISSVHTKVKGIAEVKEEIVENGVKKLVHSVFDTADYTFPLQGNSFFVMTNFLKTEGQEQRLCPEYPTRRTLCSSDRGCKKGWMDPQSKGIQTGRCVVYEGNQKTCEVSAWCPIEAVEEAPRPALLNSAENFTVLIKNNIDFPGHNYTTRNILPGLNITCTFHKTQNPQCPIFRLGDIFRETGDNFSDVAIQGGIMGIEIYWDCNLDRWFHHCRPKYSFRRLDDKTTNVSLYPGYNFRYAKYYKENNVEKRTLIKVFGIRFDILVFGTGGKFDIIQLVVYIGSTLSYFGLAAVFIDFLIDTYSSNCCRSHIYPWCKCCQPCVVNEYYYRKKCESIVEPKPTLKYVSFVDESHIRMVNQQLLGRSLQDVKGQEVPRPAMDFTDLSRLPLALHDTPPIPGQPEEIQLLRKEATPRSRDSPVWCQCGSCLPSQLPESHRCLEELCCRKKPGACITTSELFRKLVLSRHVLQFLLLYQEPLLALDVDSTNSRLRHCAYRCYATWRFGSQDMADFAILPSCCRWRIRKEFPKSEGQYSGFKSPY
Assay: P2X7 calcium mobilization assay, high throughput, antagonist activity (Example 4A)
Format: cell-based
Conditions: 50% decrease in the fluorescence response of cells exposed to 80 μM of 2′(3′)-O-(4-benzoyl-benzoyl)adenosine 5′-triphosphate; Example 4A; read-out: IC50
Procedure, shortened: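 Antagonism was measured as calcium fluorescence (FLIPR Tetra) in cells seeded one day earlier at 100,000/well, loaded with dye for 1 h and exposed to compound for 1 h at room temperature before agonist. Peak RFU, minus the no-agonist background, was referenced to the mean of the agonist wells.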

SMILES | IC50 [µM]
CC(C(=O)N1CC[C@@H](N)C1)c1cn2c(C(=O)NCC34CC5CC(CC(C5)C3)C4)cccc2n1 (stereo partly drawn) [Compound 752, N-(adamantan-1-ylmethyl)-2-[2-(3-aminopyrrolidin-1-yl)-1-methyl-2-oxoethyl]imidazo [1,2-a]pyridine-5-carboxamide] | < 2
CN(C)[C@@H]1CCN(C(=O)CCc2cn3c(C(=O)NCC45CC6CC(CC(C6)C4)C5)cccc3n2)C1 [Compound 753, N-(adamantan-1-ylmethyl)-2-{3-[(3R)-3-(dimethylamino)pyrrolidin-1-yl]-3-oxopropyl}imidazo [1,2-a)pyridine-5-carboxamide] | < 2
CN(C)C1CCCN(C(=O)CCc2cn3c(C(=O)NCC45CC6CC(CC(C6)C4)C5)cccc3n2)C1 (stereo not drawn) [Compound 754, N-(adamantan-1-ylmethyl)-2-{3-[3-(dimethylamino)piperidin-1-yl]-3-oxopropyl} imidazo[1,2-a] pyridine-5-carboxamide] | < 2
O=C(NCC12CC3CC(CC(C3)C1)C2)c1cccc2nc(C(Cc3ccccc3)C(=O)O)cn12 (stereo not drawn) [Compound 755, 2-{5-[(adamantan-1-ylmethyl)carbamoyl]imidazo[1,2-a]pyridin-2-yl}-3-phenylpropanoic acid] | < 2
CCOC(=O)CCc1cn2c(C(=O)NCC34CC5CC(CC(C5)C3)C4)cccc2n1 [Compound 756, ethyl 3-{5-[(adamantan-1-ylmethyl)carbamoyl]imidazo[1,2-a]pyridin-2-yl}propanoate] | < 2
CC(C)NCCSCc1cn2c(C(=O)NCC34CC5CC(CC(C5)C3)C4)cccc2n1 [Compound 757, N-(adamantan-1-ylmethyl)-2-({[2-(isopropylamino)ethyl]thio}methyl) imidazo[1,2-a] pyridine-5-carboxamide] | < 2
COC(=O)C(Cc1cn2c(C(=O)NCC34CC5CC(CC(C5)C3)C4)cccc2n1)c1ccccn1 (stereo not drawn) [Compound 758, methyl 3-{5-[(adamantan-1-ylmethyl)carbamoyl]imidazo[1,2-a]pyridin-2-yl}-2-pyridin-2-ylpropanoate] | < 2
CCOC(=O)C(Cc1cn2c(C(=O)NCC34CC5CC(CC(C5)C3)C4)cccc2n1)c1cccnc1 (stereo not drawn) [Compound 759, ethyl 3-{5-[(adamantan-1-ylmethyl)carbamoyl]imidazo[1,2-a]pyridin-2-yl}-2-pyridin-3-ylpropanoate] | < 2
Cc1ccc(C(CNC(=O)c2cccc3nc(CN4CC[C@@H](N)C4)cn23)CC(C)C)cc1 (stereo partly drawn) [Compound 760, 2-[(3-aminopyrrolidin-1-yl)methyl]-N-[4-methyl-2-(4-methylphenyl)pentyl] imidazo[1,2-a] pyridine-5-carboxamide] | < 2
CC(C#N)c1cn2c(C(=O)NCC34CC5CC(CC(C5)C3)C4)cccc2n1 (stereo not drawn) [Compound 761, N-(adamantan-1-ylmethyl)-2-(1-cyanoethyl)imidazo [1,2-a]pyridine-5-carboxamide] | < 2
CC(C)CC(CNC(=O)c1cccc2nc(CN3CC[C@@H](N)C3)cn12)c1ccc(Cl)cc1 (stereo partly drawn) [Compound 762, 2-[(3-aminopyrrolidin-1-yl)methyl]-N-[2-(4-chlorophenyl)-4-methylpentyl] imidazo [1,2-a]pyridine-5-carboxamide] | < 2
CC(C)CC(CNC(=O)c1cccc2nc(CN3CC[C@@H](NC(=O)OC(C)(C)C)C3)cn12)c1ccc(C(F)(F)F)cc1 (stereo partly drawn) [Compound 764, tert-butyl (1-{[5-({4-methyl-2-[4-(trifluoromethyl)phenyl]pentyl}carbamoyl)imidazo [1,2-a]pyridin-2-yl]methyl}pyrrolidin-3-yl)carbamate] | < 2
Cc1ccc(C(CNC(=O)c2cccc3nc(CN4CC[C@@H](NC(=O)OC(C)(C)C)C4)cn23)CC(C)C)cc1 (stereo partly drawn) [Compound 765, tert-butyl {1-[(5-{[4-methyl-2-(4-methylphenyl)pentyl]carbamoyl}imidazo [1,2-a]pyridin-2-yl)methyl]pyrrolidin-3-yl}carbamate] | < 2
CC(C)CC(CNC(=O)c1cccc2nc(CN3CC[C@@H](NC(=O)OC(C)(C)C)C3)cn12)c1ccc(Cl)cc1 (stereo partly drawn) [Compound 766, tert-butyl{1-[(5-{[2-(4-chlorophenyl)-4-methylpentyl]carbamoyl}imidazo[1,2-a]pyridin-2-yl)methyl]pyrrolidin-3-yl}carbamate] | < 2
CN(C(=O)Cc1cn2c(C(=O)NCC34CC5CC(CC(C5)C3)C4)cccc2n1)C1CCOCC1 [Compound 767, N-(adamantan-1-ylmethyl)-2-{2-[methyl(tetrahydro-2H-pyran-4-yl)amino]-2-oxoethyl} imidazo[1,2-a] pyridine-5-carboxamide] | < 2
N[C@@H]1CCN(Cc2cn3c(C(=O)NCC4(c5cccnc5)CCCCC4)cccc3n2)C1 [Compound 769, 2-[(3-aminopyrrolidin-1-yl)methyl]-N-[(1-pyridin-3-ylcyclohexyl)methyl] imidazo[1,2-a] pyridine-5-carboxamide] | < 2
CC(c1cn2c(C(=O)NCC34CC5CC(CC(C5)C3)C4)cccc2n1)c1nnn[nH]1 (stereo not drawn) [Compound 770, N-(adamantan-1-ylmethyl)-2-[1-(1H-tetrazol-5-yl)ethyl]imidazo [1,2-a]pyridine-5-carboxamide] | < 2
N[C@@H]1CCCN(C(=O)Cc2cn3c(NC(=O)CC45CC6CC(CC(C6)C4)C5)cccc3n2)C1 [Compound 771, 2-adamantan-1-yl-N-(2-{2-[(3R)-3-aminopiperidin-1-yl]-2-oxoethyl}imidazo[1,2-a]pyridin-5-yl)acetamide] | < 2
Cc1cnc(N(C)Cc2cn3c(C(=O)NCC45CC6CC(CC(C6)C4)C5)cccc3n2)nc1N [Compound 772, N-(adamantan-1-ylmethyl)-2-{[(4-amino-5-methylpyrimidin-2-yl)(methyl)amino]methyl}imidazo [1,2-a]pyridine-5-carboxamide] | < 2
CN(Cc1cn2c(C(=O)NCC34CC5CC(CC(C5)C3)C4)cccc2n1)c1ncccc1C(=O)O [Compound 774, 2-[({5-[(adamantan-1-ylmethyl)carbamoyl]imidazo[1,2-a]pyridin-2-yl}methyl) (methyl)amino] nicotinic acid] | < 2
N[C@@H]1CCN(C(=O)CCc2cn3c(C(=O)NCC45CC6CC(CC(C6)C4)C5)cccc3n2)C1 [Compound 778, N-(adamantan-1-ylmethyl)-2-{3-[(3R)-3-aminopyrrolidin-1-yl]-3-oxopropyl} imidazo[1,2-a] pyridine-5-carboxamide] | < 2
CNC1CCN(C(=O)CCc2cn3c(C(=O)NCC45CC6CC(CC(C6)C4)C5)cccc3n2)C1 (stereo not drawn) [Compound 779, N-(adamantan-1-ylmethyl)-2-{3-[3-(methylamino)pyrrolidin-1-yl]-3-oxopropyl} imidazo[1,2-a] pyridine-5-carboxamide] | < 2
NC1CCCN(C(=O)CCc2cn3c(C(=O)NCC45CC6CC(CC(C6)C4)C5)cccc3n2)C1 (stereo not drawn) [Compound 780, N-(adamantan-1-ylmethyl)-2-[3-(3-aminopiperidin-1-yl)-3-oxopropyl] imidazo[1,2-a] pyridine-5-carboxamide] | < 2
CC(Cc1nnn[nH]1)c1cn2c(C(=O)NCC34CC5CC(CC(C5)C3)C4)cccc2n1 (stereo not drawn) [Compound 781, N-(adamantan-1-ylmethyl)-2-[1-methyl-2-(1H-tetrazol-5-yl)ethyl] imidazo[1,2-a] pyridine-5-carboxamide] | < 2
N[C@@H]1CCN(Cc2cn3c(C(=O)NCC(CC4CC4)c4ccccc4)cccc3n2)C1 (stereo partly drawn) [Compound 782, 2-[(3-aminopyrrolidin-1-yl)methyl]-N-(3-cyclopropyl-2-phenylpropyl) imidazo [1,2-a]pyridine-5-carboxamide] | < 2
N[C@@H]1CCN(Cc2cn3c(C(=O)NCC(CC4CCC4)c4ccccc4)cccc3n2)C1 (stereo partly drawn) [Compound 783, 2-[(3-aminopyrrolidin-1-yl)methyl]-N-(3-cyclobutyl-2-phenylpropyl) imidazo [1,2-a]pyridine-5-carboxamide] | < 2
CC(C)(C)OC(=O)N[C@@H]1CCN(Cc2cn3c(C(=O)NCC(CC4CCCCC4)c4ccccc4)cccc3n2)C1 (stereo partly drawn) [Compound 785, tert-butyl [1-({5-[(3-cyclohexyl-2-phenylpropyl)carbamoyl]imidazo[1,2-a]pyridin-2-yl}methyl)pyrrolidin-3-yl]carbamate] | < 2
N[C@@H]1CCN(Cc2cn3c(C(=O)NCC(CC4CCCC4)c4ccccc4)cccc3n2)C1 (stereo partly drawn) [Compound 786, 2-[(3-aminopyrrolidin-1-yl)methyl]-N-(3-cyclopentyl-2-phenylpropyl) imidazo[1,2-a] pyridine-5-carboxamide] | < 2
N[C@@H]1CCN(Cc2cn3c(C(=O)NCC(CC4CCCCC4)c4ccccc4)cccc3n2)C1 (stereo partly drawn) [Compound 787, 2-[(3-aminopyrrolidin-1-yl)methyl]-N-(3-cyclohexyl-2-phenylpropyl) imidazo[1,2-a] pyridine-5-carboxamide] | < 2
CC(C)(C)OC(=O)Nc1cn2c(C(=O)NCC34CC5CC(CC(C5)C3)C4)cccc2n1 [Compound 788, tert-butyl {5-[(adamantan-1-ylmethyl)carbamoyl]imidazo[1,2-a]pyridin-2-yl}carbamate] | < 2
